# Measurements taken from ChEMBL document CHEMBL1201862, “PubChem BioAssay data set” (2004).
#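 Cells were grown in 96-well plates and exposed to each compound for 48 hours at five concentrations; endpoints were interpolated linearly between bracketing concentrations, or set to the highest concentration if not reached. GI50 marks 50% less growth.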 Calls of active or inactive are those of the source. Rule as the data show it: active = GI50 up to about 1.1 µM and inactive = higher.
# Tests used:
# Assay in all cases: inhibition of tumour cell growth, NCI panel, 48 h
# SK-MEL-5 = system: SK-MEL-5
# KM-20L2 = system: KM-20L2
# SN12C = system: SN12C
# OVCAR-8 = system: OVCAR-8
# HT-29 = system: HT-29
# HCT-15 = system: HCT-15
# COLO 205 = system: COLO 205
# U-251 = system: U-251
# HOP-18 = system: HOP-18
# SNB-78 = system: SNB-78
# SF-268 = system: SF-268
# OVCAR-5 = system: OVCAR-5
# UO-31 = system: UO-31
# M19-MEL = system: M19-MEL
# LXFL 529 = system: LXFL 529
# SNB-75 = system: SNB-75
# HOP-62 = system: HOP-62
# CCRF-CEM = system: CCRF-CEM
# SK-MEL-2 = system: SK-MEL-2
# HCC 2998 = system: HCC 2998
# Malme-3M = system: Malme-3M
# LOX IMVI = system: LOX IMVI
# SK-MEL-28 = system: SK-MEL-28
# DMS-273 = system: DMS-273
# DLD-1 = system: DLD-1
# A549 = system: A549
# OVCAR-4 = system: OVCAR-4
# RPMI-8226 = system: RPMI-8226
# RXF 393 = system: RXF 393
# HCT-116 = system: HCT-116
# TK-10 = system: TK-10
# 786-0 = system: 786-0
# SF-295 = system: SF-295
# IGROV-1 = system: IGROV-1
# NCI-H23 = system: NCI-H23
# MOLT-4 = system: MOLT-4
# SW-620 = system: SW-620
# HL-60 = system: HL-60
# RXF 631 = system: RXF 631
# CAKI-1 = system: CAKI-1
# SK-OV-3 = system: SK-OV-3
# SNB-19 = system: SNB-19
# KM12 = system: KM12
# SR = system: SR
# ACHN = system: ACHN
# UACC-62 = system: UACC-62
# NCI-H226 = system: NCI-H226
# OVCAR-3 = system: OVCAR-3
# A498 = system: A498
# M14 = system: M14
# EKVX = system: EKVX
# UACC-257 = system: UACC-257
# HOP-92 = system: HOP-92
# NCI-H460 = system: NCI-H460
# NCI-H522 = system: NCI-H522
# DMS-114 = system: DMS-114
# XF498 = system: XF498
# SF-539 = system: SF-539
# K562 = system: K562
compound,measurement,setting,value
NC(CCc1nc(-c2ccc(Cl)cc2)cs1)C(=O)O (configuration not stated),GI50,SK-MEL-5,> 100 µM (inactive)
same,GI50,KM-20L2,> 100 µM (inactive)
same,GI50,SN12C,> 100 µM (inactive)
same,GI50,OVCAR-8,> 100 µM (inactive)
same,GI50,HT-29,> 100 µM (inactive)
same,GI50,HCT-15,74 µM
same,GI50,COLO 205,> 100 µM (inactive)
same,GI50,U-251,> 100 µM (inactive)
same,GI50,HOP-18,> 100 µM (inactive)
same,GI50,SNB-78,> 100 µM (inactive)
same,GI50,SF-268,> 100 µM (inactive)
same,GI50,OVCAR-5,> 100 µM (inactive)
same,GI50,UO-31,> 100 µM (inactive)
same,GI50,M19-MEL,> 100 µM (inactive)
same,GI50,LXFL 529,> 100 µM (inactive)
same,GI50,SNB-75,> 100 µM (inactive)
same,GI50,HOP-62,> 100 µM (inactive)
same,GI50,CCRF-CEM,> 100 µM (inactive)
same,GI50,SK-MEL-2,> 100 µM (inactive)
same,GI50,HCC 2998,> 100 µM (inactive)
same,GI50,Malme-3M,> 100 µM (inactive)
same,GI50,LOX IMVI,> 100 µM (inactive)
same,GI50,SK-MEL-28,> 100 µM (inactive)
same,GI50,DMS-273,> 100 µM (inactive)
same,GI50,DLD-1,> 100 µM (inactive)
same,GI50,A549,> 100 µM (inactive)
same,GI50,OVCAR-4,> 100 µM (inactive)
same,GI50,RPMI-8226,> 100 µM (inactive)
same,GI50,RXF 393,> 100 µM (inactive)
same,GI50,HCT-116,> 100 µM (inactive)
same,GI50,TK-10,> 100 µM (inactive)
same,GI50,786-0,> 100 µM (inactive)
same,GI50,SF-295,> 100 µM (inactive)
same,GI50,IGROV-1,> 100 µM (inactive)
same,GI50,NCI-H23,> 100 µM (inactive)
same,GI50,MOLT-4,> 100 µM (inactive)
same,GI50,SW-620,> 100 µM (inactive)
same,GI50,HL-60,> 100 µM (inactive)
same,GI50,RXF 631,> 100 µM (inactive)
same,GI50,CAKI-1,> 100 µM (inactive)
same,GI50,SK-OV-3,> 100 µM (inactive)
same,GI50,SNB-19,> 100 µM (inactive)
same,GI50,KM12,> 100 µM (inactive)
same,GI50,SR,> 100 µM (inactive)
same,GI50,ACHN,> 100 µM (inactive)
same,GI50,UACC-62,> 100 µM (inactive)
same,GI50,NCI-H226,> 100 µM (inactive)
same,GI50,OVCAR-3,> 100 µM (inactive)
same,GI50,A498,> 100 µM (inactive)
same,GI50,M14,> 100 µM (inactive)
same,GI50,EKVX,> 100 µM (inactive)
same,GI50,UACC-257,> 100 µM (inactive)
same,GI50,HOP-92,> 73.5 µM (inactive)
same,GI50,NCI-H460,> 100 µM (inactive)
same,GI50,NCI-H522,> 100 µM (inactive)
CC(=O)NC(CCCN(Cc1ccccc1)C(=O)N(CCCl)N=O)C(=O)NCc1ccccc1 (configuration not stated),GI50,SK-MEL-5,27.5 µM (inactive)
same,GI50,KM-20L2,59.6 µM (inactive)
same,GI50,SN12C,46.3 µM (inactive)
same,GI50,OVCAR-8,> 71.1 µM (inactive)
same,GI50,HT-29,> 57.5 µM (inactive)
same,GI50,HCT-15,> 81.8 µM
same,GI50,COLO 205,> 64.7 µM (inactive)
same,GI50,U-251,10.9 µM (inactive)
same,GI50,HOP-18,> 100 µM (inactive)
same,GI50,SNB-78,54.1 µM (inactive)
same,GI50,SF-268,3.89 µM (inactive)
same,GI50,OVCAR-5,35.2 µM (inactive)
same,GI50,UO-31,43.4 µM (inactive)
same,GI50,DMS-114,> 100 µM (inactive)
same,GI50,XF498,> 37.8 µM (inactive)
same,GI50,LXFL 529,> 100 µM (inactive)
same,GI50,SNB-75,9.02 µM (inactive)
same,GI50,HOP-62,7.24 µM (inactive)
same,GI50,CCRF-CEM,23 µM (inactive)
same,GI50,SK-MEL-2,> 66.5 µM (inactive)
same,GI50,HCC 2998,64.6 µM (inactive)
same,GI50,Malme-3M,> 53.1 µM (inactive)
same,GI50,SF-539,2.54 µM (inactive)
same,GI50,LOX IMVI,2.92 µM (inactive)
same,GI50,SK-MEL-28,78.3 µM (inactive)
same,GI50,DMS-273,41 µM (inactive)
same,GI50,DLD-1,62.7 µM (inactive)
same,GI50,A549,16.1 µM (inactive)
same,GI50,OVCAR-4,> 95.3 µM (inactive)
same,GI50,RPMI-8226,> 70 µM (inactive)
same,GI50,RXF 393,21.8 µM (inactive)
same,GI50,HCT-116,37.8 µM (inactive)
same,GI50,TK-10,> 85.5 µM (inactive)
same,GI50,786-0,2.24 µM (inactive)
same,GI50,SF-295,6.19 µM (inactive)
same,GI50,IGROV-1,44.4 µM (inactive)
same,GI50,NCI-H23,27 µM (inactive)
same,GI50,MOLT-4,9.4 µM (inactive)
same,GI50,SW-620,16.2 µM (inactive)
same,GI50,HL-60,8.71 µM (inactive)
same,GI50,CAKI-1,7.5 µM (inactive)
same,GI50,SK-OV-3,55.6 µM (inactive)
same,GI50,SNB-19,17.8 µM (inactive)
same,GI50,KM12,60.5 µM (inactive)
same,GI50,K562,68.4 µM (inactive)
same,GI50,SR,3.69 µM (inactive)
same,GI50,ACHN,10.8 µM (inactive)
same,GI50,UACC-62,2.24 µM (inactive)
same,GI50,NCI-H226,44.9 µM (inactive)
same,GI50,OVCAR-3,98.6 µM (inactive)
same,GI50,A498,32.7 µM (inactive)
same,GI50,M14,42.7 µM (inactive)
same,GI50,EKVX,> 72.9 µM (inactive)
same,GI50,UACC-257,50 µM (inactive)
same,GI50,HOP-92,36 µM (inactive)
same,GI50,NCI-H460,3.32 µM (inactive)
same,GI50,NCI-H522,57.1 µM (inactive)
